One data set relates to HCT-116. Briefly: Cytotoxicity assay (SRB), HCT-116. The format is cell-based. Conditions: Homo sapiens, HCT-116, 72 h, HCT116 cells, SRB, read-out: In Vitro Cellular Activity IC50 HCT116. An outline of the steps: (§1)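 Plate cells, let them attach overnight, add compound dilutions in RPMI 1640/5% FBS, and incubate 3 days (BT474 6 days). Then fix with TCA, stain with SRB, dissolve the dye in Tris and read at 540 nm.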

For another data set, the system named is LoVo. Briefly: Cytotoxicity assay (SRB), LoVo. Conditions: Homo sapiens, LoVo, 72 h, LoVo cells, SRB, read-out: In Vitro Cellular Activity IC50 LOVO. The format is cell-based. The procedure, abridged:
as §1

The test system of another data set is MCF-7. Briefly: Cytotoxicity assay (SRB), MCF-7. The format is cell-based. The following applies: Homo sapiens, MCF7, 72 h, MCF-7 cells, SRB, read-out: In Vitro Cellular Activity IC50 MCF-7. The procedure, abridged: as §1
A further data set has as its target T1, cyclin B/CDK1 enzyme (Homo sapiens, UniProt P06493).
T1 construct: purchased New England BioLabs; host or cells: Sf9 insect cells, recombinant baculovirus
Briefly: CDK1 ELISA kinase assay (phospho-Rb ser 795 detection). The format is biochemical. An outline of the steps:
(§2)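 Partially purified Sf9-expressed cyclin D1/CDK4, cyclin E/CDK2 or cyclin B/CDK1 phosphorylated plate-bound GST-Rb C-terminal fragment with 200 μM ATP at 30° C for 1 h.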

Data set [1] is described as follows: I.V. and P.O. Dosing in Mice. The format is in vivo. Conditions: for AUC(0-inf) / bioavailability: mouse, in vivo; for bioavailability: po 50 mg/kg vs i.v. 2 mg/kg.
The next data set concerns BT474. Nature of the data set: Cytotoxicity assay (SRB), BT474. The format is cell-based. An outline of the steps:
as §1

Another data set addresses T2, cyclin D1/cdk 4 enzyme (Homo sapiens, UniProt P11802).
T2 construct: made in house; host or cells: Sf9 insect cells, recombinant baculovirus
Nature of the data set: CDK4 ELISA kinase assay (phospho-Rb ser 795 detection). The format is biochemical. The following applies: In Vitro Enzyme Assay, cyclin D1/cdk 4, read-out: CDK4 IC50. An outline of the steps:
as §2

The target in another data set is T3, cyclin E/CDK2 enzyme (Homo sapiens, UniProt P24941).
T3 construct: made in house; host or cells: Sf9 insect cells, recombinant baculovirus
Nature of the data set: CDK2 ELISA kinase assay (phospho-Rb ser 795 detection). Conditions: In Vitro Enzyme Assay, cyclin E/CDK2, read-out: CDK2 IC50. The format is biochemical. The procedure, abridged: as §2

Setting [2] is: iv, 2 mg/kg, dose i.v. 2 mg/kg, read-out: aucinf obs (i.v.).
Where [3] appears, read: po, 50 mg/kg, dose po 50 mg/kg, read-out: aucinf obs (po).
Where [4] appears, read: In Vitro Enzyme Assay, cyclin B/CDK1, read-out: CDK1 IC50.
The mark [5] stands for this setting: Homo sapiens, BT-474, 144 h, BT474 cells, 6 days, SRB; read-out: In Vitro Cellular Activity IC50 BT474.

Like-named read-outs stand apart in the source and are kept apart here.

T1 sequence (P06493 whole entry): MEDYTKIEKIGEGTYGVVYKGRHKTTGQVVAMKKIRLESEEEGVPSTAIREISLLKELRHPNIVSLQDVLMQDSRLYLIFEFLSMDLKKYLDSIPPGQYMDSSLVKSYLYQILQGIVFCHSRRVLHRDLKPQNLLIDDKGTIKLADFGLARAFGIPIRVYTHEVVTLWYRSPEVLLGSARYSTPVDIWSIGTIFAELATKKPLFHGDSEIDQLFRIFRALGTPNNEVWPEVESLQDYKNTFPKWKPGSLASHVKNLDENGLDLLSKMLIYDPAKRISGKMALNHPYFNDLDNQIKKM
T1 sequence (P14635 whole entry partner): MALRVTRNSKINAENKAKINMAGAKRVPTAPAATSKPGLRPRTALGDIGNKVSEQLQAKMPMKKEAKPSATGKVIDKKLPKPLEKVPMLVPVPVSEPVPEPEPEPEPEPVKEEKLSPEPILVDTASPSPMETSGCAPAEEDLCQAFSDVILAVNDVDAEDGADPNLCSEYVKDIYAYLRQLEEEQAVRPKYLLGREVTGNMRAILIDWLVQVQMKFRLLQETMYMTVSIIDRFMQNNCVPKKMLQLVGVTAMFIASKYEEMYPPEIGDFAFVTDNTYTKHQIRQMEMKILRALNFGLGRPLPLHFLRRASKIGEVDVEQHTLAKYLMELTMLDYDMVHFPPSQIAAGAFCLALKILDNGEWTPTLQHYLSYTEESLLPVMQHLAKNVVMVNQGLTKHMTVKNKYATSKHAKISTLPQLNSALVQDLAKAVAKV
T2 sequence (P11802 whole entry, species assumed): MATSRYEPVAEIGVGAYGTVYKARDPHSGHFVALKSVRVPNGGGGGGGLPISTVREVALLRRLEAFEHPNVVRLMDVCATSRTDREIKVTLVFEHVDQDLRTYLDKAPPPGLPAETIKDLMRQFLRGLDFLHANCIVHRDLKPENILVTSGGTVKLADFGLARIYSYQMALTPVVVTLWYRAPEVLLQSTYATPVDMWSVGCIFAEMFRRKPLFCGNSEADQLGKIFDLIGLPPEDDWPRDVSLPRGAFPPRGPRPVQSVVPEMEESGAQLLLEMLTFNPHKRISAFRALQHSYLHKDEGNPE
T2 sequence (P24385 whole entry partner, species assumed): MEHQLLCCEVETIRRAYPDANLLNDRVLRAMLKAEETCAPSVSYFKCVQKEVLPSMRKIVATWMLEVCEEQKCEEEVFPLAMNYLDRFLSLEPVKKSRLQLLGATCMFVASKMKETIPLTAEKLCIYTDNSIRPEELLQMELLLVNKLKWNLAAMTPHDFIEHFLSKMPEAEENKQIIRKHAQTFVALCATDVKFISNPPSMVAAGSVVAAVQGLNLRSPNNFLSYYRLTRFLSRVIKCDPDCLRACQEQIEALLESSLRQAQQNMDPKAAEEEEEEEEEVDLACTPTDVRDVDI

As for `CCCOc1ccc(CN/C=C2\C(=O)NC(=O)c3ccc(I)cc32)cc1O` [Example 178, (4Z)-4-{[(3-Hydroxy-4-propoxybenzyl)amino]methylene}-6-iodoisoquinoline-1,3(2H,4H)-dione], the IC50 with HCT-116 (three days) is 650 nM; with LoVo (three days) it was 740 nM; in the data set on MCF-7 (three days), 1800 nM; at cyclin B/CDK1 enzyme (In Vitro Enzyme Assays, read-out: CDK1 IC50) it was 13900 nM; in the data set on BT474 (Homo sapiens, BT-474, 144 h, BT474 cells, SRB, 6 days; read-out: In Vitro Cellular Activity IC50 BT474) it was 620 nM. The Cl_obs in data set [1] (dose i.v. 2 mg/kg) turned out to be 33 mL/min/kg. In [1] (dose i.v. 2 mg/kg), this compound yielded a Vss_obs of 1.5 L/kg. Moreover, the HL_Lambda_z in data set [1] (dose po 50 mg/kg) was determined as 6.1 h. For the same compound, the AUC(0-inf) in data set [1] (setting [2]) was 999 ng·h/mL; in data set [1] (setting [3]), 360 ng·h/mL. Also, the bioavailability in [1] (po, 50 mg/kg) was found to be 14%.

In turn, `O=C1NC(=O)c2ccc(-c3ccc(F)cc3)cc2/C1=C/Nc1ccc(CN2CCC(CCO)CC2)cc1` [Example 482, (4Z)-6-(4-Fluorophenyl)-4-{[(4-{[4-(2-hydroxyethyl)piperidin-1-yl]methyl}phenyl)amino]methylene}isoquinoline-1,3(2H,4H)-dione] showed a melting point of 202 to 203 °C. Also, the IC50 with HCT-116 (3 days) was 2500 nM. For the same compound, the IC50 in the data set on LoVo (3 days) stood at 2700 nM. Besides, in the data set on MCF-7 (3 days), the IC50 stood at 840 nM. Also, the IC50 at cyclin B/CDK1 enzyme (setting [4]) was more than 50000 nM. Besides, at cyclin D1/cdk 4 enzyme, the IC50 was determined as 120 nM. The IC50 at cyclin E/CDK2 enzyme was more than 50000 nM. For the same compound, the IC50 with BT474 (setting [5]) is 1300 nM.

With `CC(C)N1CCN(c2ccc(N/C=C3\C(=O)NC(=O)c4ccc(-c5ccoc5)cc43)nc2)CC1` [Example 488, (4Z)-6-(3-Furyl)-4-({[5-(4-isopropylpiperazin-1-yl)pyridin-2-yl]amino}methylene)isoquinoline-1,3(2H,4H)-dione], the melting point is 278 to 279 °C. Moreover, the IC50 with HCT-116 (3 days) turned out to be 3160 nM. For the same compound, the IC50 with LoVo (3 days) was 2410 nM. Moreover, the IC50 in the data set with MCF-7 (3 days) amounted to 2270 nM. Also, the IC50 at cyclin B/CDK1 enzyme (setting [4]) was more than 50000 nM. Also, the IC50 at cyclin D1/cdk 4 enzyme worked out at 430 nM. Also, at cyclin E/CDK2 enzyme, the IC50 is more than 50000 nM. The IC50 in the data set on BT474 (setting [5]) worked out at 960 nM.

In turn, `O=C1NC(=O)c2ccc(Br)cc2/C1=C/Nc1ccc(CN2CCC(CCO)CC2)cc1` [Example 489, (4Z)-6-Bromo-4-{[(4-{[4-(2-hydroxyethyl)piperidin-1-yl]methyl}phenyl)amino]methylene}isoquinoline-1,3(2H,4H)-dione] displayed a melting point of 200 to 201 °C. In addition, the IC50 in the data set on HCT-116 (3 days) was 4040 nM. Also, in the data set with LoVo (3 days), the IC50 was 4590 nM. Also, in the data set with MCF-7 (3 days), the IC50 was 3430 nM. Moreover, the IC50 on cyclin B/CDK1 enzyme (setting [4]) is more than 50000 nM. Besides, the IC50 at cyclin D1/cdk 4 enzyme is 1300 nM. Besides, on cyclin E/CDK2 enzyme, the IC50 is more than 50000 nM. For the same compound, the IC50 in the data set on BT474 (setting [5]) came to 6250 nM.

For `CCCOc1cnc(CN/C=C2\C(=O)NC(=O)c3ccc(-c4ccco4)cc32)cc1O` [Example 502, 6-Furan-2-yl-4-{[(4-hydroxy-5-propoxy-pyridin-2-ylmethyl)-amino]-methylene}-4H-isoquinoline-1,3-dione], the melting point is 288 to 290 °C (dec.). Besides, in the data set on HCT-116 (3 days), the IC50 was found to be 1400 nM. In the data set with LoVo (3 days), the IC50 was determined as 960 nM. For the same compound, in the data set on MCF-7 (3 days), the IC50 was determined as 1200 nM. Also, the IC50 on cyclin B/CDK1 enzyme (setting [4]) is 20200 nM. In addition, the IC50 on cyclin D1/cdk 4 enzyme was less than 5 nM. For the same compound, the IC50 at cyclin E/CDK2 enzyme came out at 2800 nM. Further, the IC50 in the data set on BT474 (setting [5]) is 690 nM.

As to `O=C1NC(=O)c2ccc(I)cc2/C1=C/NCc1ccc(-c2ccoc2)c(O)c1` [Example 506, 4-[(4-Furan-3-yl-3-hydroxy-benzylamino)-methylene]-6-iodo-4H-isoquinoline-1,3-dione], the IC50 in the data set with LoVo (3 days) is 410 nM; at cyclin E/CDK2 enzyme it was 4700 nM; in the data set on BT474 (setting [5]), 290 nM. In [1] (dose i.v. 2 mg/kg), this compound showed a Cl_obs of 79 mL/min/kg. This compound also showed a Vss_obs in [1] (dose i.v. 2 mg/kg) of 6.7 L/kg. Also, in data set [1] (dose po 50 mg/kg), the HL_Lambda_z came out at 2.6 h. Moreover, the AUC(0-inf) in [1] (setting [2]) was found to be 423 ng·h/mL; in [1] (setting [3]) it was 5590 ng·h/mL. For the same compound, in data set [1] (po, 50 mg/kg), the bioavailability is 53%.

`CN1CCN(c2cnc(N/C=C3\C(=O)NC(=O)c4ccc(I)cc43)cn2)CC1` [Example 507, (4Z)-6-Iodo-4-({[5-(4-methylpiperazin-1-yl)pyrazin-2-yl]amino}methylene)isoquinoline-1,3(2H,4H)-dione]: the melting point was 238 to 239 °C. Further, in the data set on HCT-116 (3 days), the IC50 is 3100 nM. The IC50 in the data set on LoVo (3 days) was determined as 18000 nM. Besides, the IC50 in the data set with MCF-7 (3 days) turned out to be 11000 nM. In addition, the IC50 on cyclin B/CDK1 enzyme (setting [4]) came out at 3000 nM. For the same compound, on cyclin D1/cdk 4 enzyme, the IC50 is 13700 nM. Also, the IC50 on cyclin E/CDK2 enzyme stood at 16000 nM. Also, the IC50 with BT474 (setting [5]) was 9500 nM.

Take `CN1CCN(c2cnc(N/C=C3\C(=O)NC(=O)c4ccc(-c5ccoc5)cc43)cn2)CC1` [Example 508, (4Z)-6-(3-Furyl)-4-({[5-(4-methylpiperazin-1-yl)pyrazin-2-yl]amino}methylene)isoquinoline-1,3(2H,4H)-dione]: the melting point is 226 to 227 °C. The IC50 with HCT-116 (3 days) was 950 nM. Further, the IC50 with LoVo (3 days) amounted to 1100 nM. The IC50 in the data set on MCF-7 (3 days) was found to be 1300 nM. In addition, the IC50 on cyclin B/CDK1 enzyme (setting [4]) is 2200 nM. Further, the IC50 on cyclin D1/cdk 4 enzyme was found to be 1300 nM. The IC50 on cyclin E/CDK2 enzyme is more than 50000 nM. Besides, the IC50 in the data set on BT474 (setting [5]) was 3000 nM.

For the compound `CN(C)C1CCN(Cc2ccc(N/C=C3\C(=O)NC(=O)c4ccc(-c5ccc(F)cc5)cc43)cc2)C1` (stereo not shown) [Example 512, (4Z)-4-{[(4-{[3-(Dimethylamino)pyrrolidin-1-yl]methyl}phenyl)amino]methylene}-6-(4-fluorophenyl)isoquinoline-1,3(2H,4H)-dione], the melting point was 95 to 96 °C. For the same compound, the IC50 in the data set with HCT-116 (3 days) worked out at 1190 nM. Also, the IC50 in the data set with LoVo (3 days) is 3050 nM. Further, in the data set with MCF-7 (3 days), the IC50 stood at 2700 nM. For the same compound, on cyclin B/CDK1 enzyme (setting [4]), the IC50 is more than 50000 nM. Further, the IC50 at cyclin D1/cdk 4 enzyme is 200 nM. Also, the IC50 at cyclin E/CDK2 enzyme was more than 50000 nM. The IC50 in the data set with BT474 (setting [5]) stood at 2360 nM.

For the compound `O=C1NC(=O)c2ccc(I)cc2/C1=C/NCc1ccc(-n2cccc2)c(O)c1` [Example 514, (4Z)-4-({[3-Hydroxy-4-(1H-pyrrol-1-yl)benzyl]amino}methylene)-6-iodoisoquinoline-1,3(2H,4H)-dione], the melting point was in the range of 230 to 231 °C. Besides, in the data set on HCT-116 (3 days), the IC50 worked out at 1040 nM. Further, the IC50 in the data set with LoVo (3 days) came to 740 nM. Also, the IC50 with MCF-7 (3 days) came to 2250 nM. In addition, on cyclin B/CDK1 enzyme (setting [4]), the IC50 is more than 50000 nM. Moreover, at cyclin D1/cdk 4 enzyme, the IC50 was found to be 60 nM. Besides, on cyclin E/CDK2 enzyme, the IC50 was 15800 nM. The IC50 in the data set with BT474 (setting [5]) came to 590 nM.

Consider `CN1CCN(c2ccc(CN/C=C3\C(=O)NC(=O)c4ccc(I)cc43)cc2O)CC1` [Example 521, (4Z)-4-({[3-Hydroxy-4-(4-methylpiperazin-1-yl)benzyl]amino}methylene)-6-iodoisoquinoline-1,3(2H,4H)-dione], for which the melting point lay in the range of 180 to 181 °C. Also, the IC50 in the data set on HCT-116 (3 days) was 2570 nM. The IC50 with LoVo (3 days) is 5440 nM. For the same compound, the IC50 in the data set on MCF-7 (3 days) is 2600 nM. For the same compound, on cyclin B/CDK1 enzyme (setting [4]), the IC50 amounted to 2600 nM. Besides, the IC50 at cyclin D1/cdk 4 enzyme turned out to be 20 nM. Also, the IC50 at cyclin E/CDK2 enzyme is 560 nM. For the same compound, the IC50 in the data set with BT474 (setting [5]) worked out at 7550 nM.

As to `COC[C@@H]1CCCN1c1ccc(CN/C=C2\C(=O)NC(=O)c3ccc(I)cc32)cc1O` [Example 523, (4Z)-4-[({3-Hydroxy-4-[(2S)-2-(methoxymethyl)pyrrolidin-1-yl]benzyl}amino)methylene]-6-iodoisoquinoline-1,3(2H,4H)-dione], the melting point was 120 to 121 °C. In addition, the IC50 with HCT-116 (3 days) came to 6400 nM. The IC50 in the data set with LoVo (3 days) is 6200 nM. Further, the IC50 with MCF-7 (3 days) was 7300 nM. The IC50 on cyclin B/CDK1 enzyme (setting [4]) was more than 50000 nM. Also, the IC50 at cyclin D1/cdk 4 enzyme worked out at 200 nM. For the same compound, the IC50 on cyclin E/CDK2 enzyme is 31100 nM. For the same compound, the IC50 in the data set with BT474 (setting [5]) stood at 5700 nM.

The record behind these values is US7713994B2 (Wyeth LLC, priority 2005, dated 2010).
